“And” between values parts separate entries of the source, which are not always exact repeats. Equal values may be shown once. Toxic doses and inconclusive results are not listed. Cut-off read from the data, not from the text of the source: active = T/C of 150% or more; inactive = T/C below 125%.
Test system: L1210 leukemia ip in BDF1 mice, survival T/C
Assay: NCI In Vivo Anticancer Drug Screen. Data for tumor model L1210 Leukemia (intraperitoneal) in B6D2F1 (BDF1) mice
Details: endpoint: mean survival time, higher = longer survival
Summary of the method: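 Transplanted-tumor mice were given test agent; controls received vehicle only. Survival readings from the two groups were divided (treated over control).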

[1] = dose: 50.0 mg/kg/injection, schedule: Q01DX009 (ip), vehicle: Klucel (hydroxypropylcellulose) (HPC)
[2] = dose: 100.0 mg/kg/injection, schedule: Q04DX003 (ip), vehicle: Klucel (hydroxypropylcellulose) (HPC)
[3] = dose: 200.0 mg/kg/injection, schedule: Q01DX009 (ip), vehicle: Klucel (hydroxypropylcellulose) (HPC)
[4] = dose: 200.0 mg/kg/injection, schedule: Q04DX003 (ip), vehicle: Klucel (hydroxypropylcellulose) (HPC)
[5] = dose: 50.0 mg/kg/injection, schedule: Q01DX001 (ip), vehicle: carboxymethylcellulose (CMC)
[6] = dose: 100.0 mg/kg/injection, schedule: Q01DX001 (ip), vehicle: carboxymethylcellulose (CMC)
[7] = dose: 100.0 mg/kg/injection, schedule: Q01DX001 (ip), vehicle: other
[8] = dose: 200.0 mg/kg/injection, schedule: Q01DX001 (ip), vehicle: other
[9] = dose: 400.0 mg/kg/injection, schedule: Q01DX001 (ip), vehicle: other
[10] = dose: 400.0 mg/kg/injection, schedule: Q04DX003 (ip), vehicle: Klucel (hydroxypropylcellulose) (HPC)
[11] = dose: 100.0 mg/kg/injection, schedule: Q04DX003 (ip), vehicle: saline with Tween-80
[12] = dose: 200.0 mg/kg/injection, schedule: Q04DX003 (ip), vehicle: saline with Tween-80
[13] = dose: 400.0 mg/kg/injection, schedule: Q04DX003 (ip), vehicle: saline with Tween-80
[14] = dose: 100.0 mg/kg/injection, schedule: Q01DX009 (ip), vehicle: saline with Tween-80
[15] = dose: 200.0 mg/kg/injection, schedule: Q01DX009 (ip), vehicle: saline with Tween-80
[16] = dose: 12.5 mg/kg/injection, schedule: Q01DX009 (ip), vehicle: Klucel (hydroxypropylcellulose) (HPC)
[17] = dose: 25.0 mg/kg/injection, schedule: Q01DX009 (ip), vehicle: Klucel (hydroxypropylcellulose) (HPC)
[18] = dose: 100.0 mg/kg/injection, schedule: Q01DX009 (ip), vehicle: Klucel (hydroxypropylcellulose) (HPC)

Measured: T/C

COC1CC2c3ccccc3C1C(C)=[N+]2C (configuration not stated)
inactive: dose: 50.0 mg/kg/injection, schedule: Q01DX009 (ip), vehicle: saline 97 % of control | dose: 100.0 mg/kg/injection, schedule: Q01DX009 (ip), vehicle: saline 101 % of control | dose: 100.0 mg/kg/injection, schedule: Q04DX003 (ip), vehicle: saline 102 % of control | dose: 200.0 mg/kg/injection, schedule: Q01DX009 (ip), vehicle: saline 100 % of control | dose: 200.0 mg/kg/injection, schedule: Q04DX003 (ip), vehicle: saline 97 % of control | dose: 400.0 mg/kg/injection, schedule: Q04DX003 (ip), vehicle: saline 102 % of control

CCN(CC)CCCCCOC(=O)c1ccccc1
inactive: [1] 92 % of control | [2] 97 % of control | [3] 96 % of control | [4] 107 % of control

CC(C)C1(NC(=O)C2C=C3c4cccc5[nH]cc(c45)CC3N(C)C2)OC2(O)C3CCCN3C(=O)C(Cc3ccccc3)N2C1=O (configuration not stated)
inactive: [5] 93 % of control | dose: 50.0 mg/kg/injection, schedule: Q01DX001 (ip), vehicle: other 93 % of control | [6] 98 % of control | [7] 88 % of control | dose: 100.0 mg/kg/injection, schedule: Q01DX001 (ip), vehicle: saline 102 % of control | [8] 93 % of control | dose: 200.0 mg/kg/injection, schedule: Q01DX001 (ip), vehicle: saline 96 % of control and 89 % of control | [9] 96 % of control

CCCCOP(=O)(Nc1ccc(Cl)cc1)OCCCC
inactive: dose: 100.0 mg/kg/injection, schedule: Q04DX002 (ip), vehicle: saline with Tween-80 101 % of control | dose: 200.0 mg/kg/injection, schedule: Q04DX002 (ip), vehicle: saline with Tween-80 94 % of control | dose: 400.0 mg/kg/injection, schedule: Q04DX002 (ip), vehicle: saline with Tween-80 105 % of control

c1ccc(P(CC[As](c2ccccc2)c2ccccc2)CC[As](c2ccccc2)c2ccccc2)cc1
inactive: [2] 93 % of control | [4] 93 % of control | [10] 96 % of control

COC(=O)Cc1cc(Cl)c2cc(C)ccc2n1
inactive: [7] 95 % of control | [8] 98 % of control | [9] 96 % of control

CCOC(=O)CNc1ccc(Cl)c(C)c1
inactive: dose: 100.0 mg/kg/injection, schedule: Q04DX002 (ip), vehicle: Klucel (hydroxypropylcellulose) (HPC) 111 % of control | dose: 200.0 mg/kg/injection, schedule: Q04DX002 (ip), vehicle: Klucel (hydroxypropylcellulose) (HPC) 107 % of control | dose: 400.0 mg/kg/injection, schedule: Q04DX002 (ip), vehicle: Klucel (hydroxypropylcellulose) (HPC) 111 % of control

Cc1ccc(S(=O)(=O)NC(CCl)=NCC23CC4CC(CC(C4)C2)C3)cc1
inactive: dose: 31.3 mg/kg/injection, schedule: Q04DX002 (ip), vehicle: Klucel (hydroxypropylcellulose) (HPC) 113 % of control | dose: 62.5 mg/kg/injection, schedule: Q04DX002 (ip), vehicle: Klucel (hydroxypropylcellulose) (HPC) 94 % of control | dose: 125.0 mg/kg/injection, schedule: Q04DX002 (ip), vehicle: Klucel (hydroxypropylcellulose) (HPC) 94 % of control

OC(c1ccc(C2CC2)cc1)(c1ccc(C2CC2)cc1)c1ccc(C2CC2)cc1
inactive: [11] 104 % of control | [12] 102 % of control | [13] 91 % of control

CC(=O)Cc1cc(=O)[nH]c(=O)[nH]1
inactive: [14] 95 % of control | [15] 89 % of control

C=CCN1CCC(C(=O)CC)(c2ccccc2)CC1
inactive: [16] 100 % of control | [17] 98 % of control | [1] 106 % of control

NC1=Nc2cccc3cccc(c23)N1
inactive: [16] 95 % of control | dose: 12.5 mg/kg/injection, schedule: Q04DX003 (ip), vehicle: Klucel (hydroxypropylcellulose) (HPC) 95 % of control | [17] 93 % of control | dose: 25.0 mg/kg/injection, schedule: Q04DX003 (ip), vehicle: Klucel (hydroxypropylcellulose) (HPC) 92 % of control | [1] 90 % of control | dose: 50.0 mg/kg/injection, schedule: Q04DX003 (ip), vehicle: Klucel (hydroxypropylcellulose) (HPC) 98 % of control

CCCCCCCCCCCCCCCCNc1cccc2ccccc12
inactive: [2] 90 % of control | [4] 90 % of control | [10] 91 % of control

Cc1c(C)c(CN)c(C)c(C)c1CN
inactive: [18] 91 % of control | [2] 103 % of control | [3] 100 % of control | [4] 98 % of control

CC(=O)OC(c1ccnc2ccccc12)C1CC2CCN1CC2 (configuration not stated)
inactive: [5] 97 % of control | [6] 97 % of control | dose: 200.0 mg/kg/injection, schedule: Q01DX001 (ip), vehicle: carboxymethylcellulose (CMC) 95 % of control

O=S(=O)(CC1CC2C=CC1C2)c1ccc(Br)cc1 (configuration not stated)
inactive: [11] 108 % of control | [12] 101 % of control | [13] 101 % of control

O=C1c2ccccc2-c2nc3cc4ccccc4cc3nc21
inactive: dose: 100.0 mg/kg/injection, schedule: Q01DX001 (ip), vehicle: Klucel (hydroxypropylcellulose) (HPC) 98 % of control | [18] 98 % of control | dose: 200.0 mg/kg/injection, schedule: Q01DX001 (ip), vehicle: Klucel (hydroxypropylcellulose) (HPC) 88 % of control | [3] 97 % of control | dose: 400.0 mg/kg/injection, schedule: Q01DX001 (ip), vehicle: Klucel (hydroxypropylcellulose) (HPC) 97 % of control | dose: 400.0 mg/kg/injection, schedule: Q01DX009 (ip), vehicle: Klucel (hydroxypropylcellulose) (HPC) 102 % of control

C[n+]1ccc(C(=O)c2ccccc2)cc1
inactive: dose: 75.0 mg/kg/injection, schedule: Q01DX001 (ip), vehicle: saline 94 % of control | dose: 150.0 mg/kg/injection, schedule: Q01DX001 (ip), vehicle: saline 101 % of control

CCCc1cc2c(cc1CS(=O)(=O)c1ccccc1)OCO2
inactive: [16] 97 % of control | [17] 112 % of control | [1] 108 % of control | [18] 101 % of control and 102 % of control | [2] 94 % of control | [3] 102 % of control | [4] 97 % of control | [10] 101 % of control

Cc1ccc(S(=O)(=O)N(CCC(=O)O)c2ccccc2)cc1
inactive: [14] 90 % of control | [15] 97 % of control

S=c1nc[nH]c2ncccc12
inactive: [2] 104 % of control | [4] 100 % of control | [10] 97 % of control

CCCCCCCCC/C=C(\CCCCCCCCCC)c1cc(C)ccc1C
inactive: dose: 12.5 mg/kg/injection, schedule: Q04DX002 (ip), vehicle: saline with Tween-80 94 % of control

From PubChem BioAssay AID248 (DTP/NCI, 2004)
